Assay results taken from patent US20030187240A1, “2' -modified oligonucleotides” (ISIS Pharmaceuticals, Inc., priority 1990, published 2003).
Values belong to the substance of their own block, whether it stands above or below them. Strand notation (5' to 3'): a small letter for the sugar, then the base; units joined by * are phosphorothioate-linked, units joined directly phosphodiester-linked; [ ] holds rarer units or linkages, { } end groups; capitals alone tell only the bases. [OPr] = 2'-O-propyl nucleotide; [OPent] = 2'-O-pentyl nucleotide; d = 2'-deoxy (DNA); m = 2'-O-methyl; f = 2'-fluoro

What was measured:
[1] = tested on: crude HeLa cellular extracts
c-raf mRNA = assay: Northern blot analysis of inhibition of c-raf mRNA expression in T24 cells; format: cell-based, human
Text: Chimeric oligonucleotides having SEQ ID NO: 7 were designed using the Genbank c-raf sequence HUMRAFR (Genbank listing x03484), synthesized and tested for inhibition of c-raf mRNA expression in T24 bladder carcinoma cells using a Northern blot assay. These chimeric oligonucleotides have central “gap” regions of 6, 8 or 10 deoxynucleotides flanked by two regions of 2′-O-methyl modified nucleotides, and are shown in Table 10. Backbones were uniformly phosphorothioate. […] These oligonucleotides are preferred.
The human urinary bladder cancer cell line T24 was obtained from the American Type Culture Collection (Rockville, Md.). Cells were grown in McCoy's 5A medium with L-glutamine (GIBCO-BRL, Gaithersburg, Md.), supplemented with 10% heat-inactivated fetal calf serum and 50 U/ml each of penicillin and streptomycin. Cells were seeded on 100 mm plates. When they reached 70% confluency, they were treated with oligonucleotide. Plates were washed with 10 ml prewarmed PBS and 5 ml of OptiMEM reduced-serum medium containing 2.5 μl DOTMA. Oligonucleotide with lipofectin was then added to the desired concentration. After 4 hours of treatment, the medium was replaced with McCoy's medium. Cells were harvested 24 to 72 hours after oligonucleotide treatment and RNA was isolated using a standard CsCl purification method. [Kingston in Current Protocols in Molecular Biology, F. M. Ausubel, R. Brent, R. E. Kingston, D. D. Moore, J. A. Smith, J. G. Seidman and K. Strahl, Eds., John Wiley and Sons, New York.] Total RNA was isolated by centrifugation of cell lysates over a CsCl cushion. RNA samples were electrophoresed through 1.2% agarose-formaldehyde gels and transferred to hybridization membranes by capillary diffusion over a 12-14 hour period. The RNA was cross-linked to the membrane by exposure to UV light in a Stratalinker (Stratagene, La Jolla, Calif.) and hybridized to random-primed ^32P-labeled c-raf cDNA probe (obtained from ATCC) or G3PDH probe as a control. RNA was quantitated using a Phosphorimager (Molecular Dynamics, Sunnyvale, Calif.).

PKC-α mRNA = PKC-α mRNA levels by Northern blot analysis; format: cell-based, human; conditions: FIGS. 3, 4 and 5; result in words
Method: Oligonucleotides having SEQ ID NO: 4 were synthesized as uniformly phosphorothioate chimeric oligonucleotides having a centered deoxy gap of varying lengths flanked by 2′-O-methylated regions. These oligonucleotides (500 nM concentration) were tested for effects on PKC-α mRNA levels by Northern blot analysis.

H-ras = assay: ras transactivation reporter gene assay; format: cell-based; conditions: for IC50: antisense activity against H-ras, 17-mer with 7-deoxy gap
Text: The expression plasmid pSV2-oli, containing an activated (codon 12, GGC→GTC) H-ras cDNA insert under control of the constitutive SV40 promoter, was a gift from Dr. Bruno Tocque (Rhone-Poulenc Sante, Vitry, France). This plasmid was used as a template to construct, by PCR, a H-ras expression plasmid under regulation of the steroid-inducible mouse mammary tumor virus (MMTV) promoter. To obtain H-ras coding sequences, the 570 bp coding region of the H-ras gene was amplified by PCR. The PCR primers were designed with unique restriction endonuclease sites in their 5′-regions to facilitate cloning. The PCR product containing the coding region of the H-ras codon 12 mutant oncogene was gel purified, digested, and gel purified once again prior to cloning. This construction was completed by cloning the insert into the expression plasmid pMAMneo (Clontech Laboratories, Calif.).
The ras-responsive reporter gene pRD053 was used to detect ras expression. [Owen et al., Proc. Natl. Acad. Sci. U.S.A., 87, 3866 (1990).

[2] = tested on: 25 mer oligoribonucleotide complement; assay: Melting curves of 2′-modified 17-mers with 7-deoxy gap; format: binding; conditions: 17-mer with 7-deoxy gap hybridized with 25 mer oligoribonucleotide complement
Text: This is attributed to these phosphodiester compounds being substrates for nucleases that degrade such phosphodiester compounds thus preventing them potentially activating RNase H. Other sugar modifications: The effects of other 2′ sugar modifications besides 2′-O-methyl on antisense activity in chimeric oligonucleotides have been examined. These modifications are listed in Table 4, along with the Tm values obtained when 17 mer oligonucleotides having 2′-modified nucleotides flanking a 7-base deoxy gap were hybridized with a 25 mer oligoribonucleotide complement as described in Example 25. […] As alkyl length increased, Tm decreased.
Absorbance vs. temperature curves were measured at 260 nm using a Gilford 260 spectrophotometer interfaced to an IBM PC computer and a Gilford Response II spectrophotometer. The buffer contained 100 mM Na^+, 10 mM phosphate and 0.1 mM EDTA, pH 7. Oligonucleotide concentration was 4 μM each strand determined from the absorbance at 85° C. and extinction coefficients calculated according to Puglisi and Tinoco [Methods in Enzymol., 180, 304 (1989). Tm values, free energies of duplex formation and association constants were obtained from fits of data to a two state model with linear sloping baselines. [Petersheim and Turner, Biochemistry, 22, 256 (1983). Reported parameters are averages of at least three experiments. For some oligonucleotides, free energies of duplex formation were also obtained from plots of Tm^−1 vs log10 (concentration). Borer et al., J. Mol. Biol., 86, 843 (1974).

ras mRNA = assay: Northern blot analysis of ras expression in T24 cells; format: cell-based, human; conditions: result in words
Method: The human urinary bladder cancer cell line T24 was obtained from the American Type Culture Collection (Rockville Md.). Cells were grown in McCoy's 5A medium with L-glutamine (GIBCO-BRL, Gaithersburg, Md.), supplemented with 10% heat-inactivated fetal calf serum and 50 U/ml each of penicillin and streptomycin. Cells were seeded on 100 mm plates. When they reached 70% confluency, they were treated with oligonucleotide. Plates were washed with 10 ml prewarmed PBS and 5 ml of OptiMEM (GIBCO) reduced-serum medium containing 2.5 μl DOTMA. Oligonucleotide was then added to the desired concentration. After 4 hours of treatment, the medium was replaced with McCoy's medium. Cells were harvested 48 hours after oligonucleotide treatment and RNA was isolated using a standard CsCl purification method. [Kingston in Current Protocols in Molecular Biology, F. M. Ausubel, R. Brent, R. E. Kingston, D. D. Moore, J. A. Smith, J. G. Seidman and K. Strahl, Eds., John Wiley and Sons, New York.] The human epithelioid carcinoma cell line HeLa 229 was obtained from the American Type Culture Collection (Bethesda, Md.). HeLa cells were maintained as monolayers on 6-well plates in Dulbecco's Modified Eagle's medium (DMEM) supplemented with 10 fetal bovine serum and 100 U/ml penicillin. Treatment with oligonucleotide and isolation of RNA were essentially as described above for T24 cells.
Northern hybridization: 10 μg of each RNA was electrophoresed on a 1.2% agarose/formaldehyde gel and transferred overnight to GeneBind 45 nylon membrane (Pharmacia LKB, Piscataway, N.J.) using standard methods. [Kingston in Current Protocols in Molecular Biology, F. M. Ausubel, R. Brent, R. E. Kingston, D. D. Moore, J. A. Smith, J. G. Seidman and K. Strahl, Eds., John Wiley and Sons, New York.] RNA was UV-crosslinked to the membrane. Double-stranded ^32P-labeled probes were synthesized using the Prime a Gene labeling kit (Promega, Madison Wis.). The ras probe was a SalI-NheI fragment of a cDNA clone of the activated (mutant) H-ras mRNA having a GGC-to-GTC mutation at codon-12. The control probe was G3PDH. Blots were prehybridized for 15 minutes at 68° C. with the QuickHyb hybridization solution (Stratagene, La Jolla, Calif.). The heat-denatured radioactive probe (2.5×10^6 counts/2 ml hybridization solution) mixed with 100 μl of 10 mg/ml salmon sperm DNA was added and the membrane was hybridized for 1 hour at 68° C. The blots were washed twice for 15 minutes at room temperature in 2×SSC/0.1% SDS and once for 30 minutes at 60° C. with 0.1×SSC/0.1%SDS. Blots were autoradiographed and the intensity of signal was quantitated using an ImageQuant PhosphorImager (Molecular Dynamics, Sunnyvale, Calif.). Northern blots were first hybridized with the ras probe, then stripped by boiling for 15 minutes in 0.1×SSC/0.1%SDS and rehybridized with the control G3PDH probe to check for correct sample loading.

[3] = tested on: codon-12 point mutation of mutant (activated) H-ras RNA; format: cell-based, human

Substance: 4233 (CCACACCGACGGCGCCC; 2'-O-methyl wings, mixed phosphorothioate/phosphodiester, pattern not given here) [Oligonucleotide 4233]
T½ [1]: 7 h

Substance: 4248 (CCACACCGACGGCGCCC; 2'-O-methyl wings, mixed phosphorothioate/phosphodiester, pattern not given here) [Oligonucleotide 4248]
degradation in HeLa cell extract [1]: no degradation after 5 hours

Substance: 6717 (TCCCGCCTGTGACATGCATT; sugars from the 5' end m6 d8 m6, all phosphorothioate, T or U not given here) [Oligonucleotide 6717]
inhibition of c-raf mRNA expression (c-raf mRNA): greater than 90%

Substance: 7008 (mA*mAmAmAmCdG*dT*dC*dA*dG*dC*dC*dA*dT*dGdGdTdCdC*dC) [Oligonucleotide 7008]
effect on PKC-α mRNA levels (PKC-α mRNA): show reduction of PKC-α mRNA

Substance: 7082 (dT*dC*dT*dC*dG*dC*dT*dG*dG*dT*dG*dA*dG*dT*dT*dT*dC; antisense) [Oligonucleotide 7082]
effect on PKC-α mRNA levels (PKC-α mRNA): most active in reducing PKC-α mRNA levels

Substance: 7083 (TCTCGCTGGTGAGTTTC; antisense; sugars from the 5' end [OPr]3 d9 [OPr]5, all phosphorothioate, methylation of C not given here) [Oligonucleotide 7083]
effect on PKC-α mRNA levels (PKC-α mRNA): most active in reducing PKC-α mRNA levels

Substance: 7273 (AAAACGTCAGCCATGGTCCC; 2'-O-propyl/deoxy, mixed P=S/P=O backbone, chemistry not fully specified) [Oligonucleotide 7273]
effect on PKC-α mRNA levels (PKC-α mRNA): more active than their 2′-O-methyl counterparts at lowering PKC-α mRNA levels

Substance: 7294 (AAAACGTCAGCCATGGTCCC; sugars from the 5' end [OPr]6 d14, linkages s1 o4 s9 o4 s1 (s phosphorothioate, o phosphodiester), methylation of C not given here) [Oligonucleotide 7294]
effect on PKC-α mRNA levels (PKC-α mRNA): more active than their 2′-O-methyl counterparts at lowering PKC-α mRNA levels

Substance: 7849 (dC*dT*dC*dG*dC*dC*dC*dG*dC*dT*dC*dC*dT*dC*dC*dT*dC*dC*dC*dC) [Oligonucleotide 7849]
inhibition of c-raf mRNA expression (c-raf mRNA): > 70%

IC50 (H-ras): 10 nM
Substance: C^FC^FA^F C^FA^FCd CdGdAd CdGdGd C^FG^FC^F C^FC^F [Oligonucleotide 4690]
antisense activity against H-ras (inhibition of ras expression) (H-ras): most active
Tm (° C.) ([2]; listed as 2′-fluoro chimeric oligonucleotide): highest Tm of the series
Tm (° C.) ([2]; listed as Fluoro): 7 °C

IC50 (H-ras): 20 nM
Substance: C^MC^MA^M C^MA^MCd CdGdAd CdGdGd C^MG^MC^M C^MC^M [Oligonucleotide 3985]
Tm (° C.) [2]: 7 °C
inhibition of ras expression in T24 cells (ras mRNA): inhibited

Substance: CsCsAsCoAoCoCoGoAoCoGoGoCoGsCsCsC [Oligonucleotide 4241]
effect on ras expression (ras-luciferase reporter system), chimeric backbone-modified oligonucleotides [3]: completely inactive
T½ [1]: 0.9 h

T½ [1]: 1.75 h
Substance: CsCsAsCsAsCsCoGoAoCoGoGsCsGsCsCsC [Oligonucleotide 4606]

T½ [1]: ~3.2 h
Substance: CsCsAsCsAsCsCoGoAoCoGsGsCsGsCsCsC [Oligonucleotide 4593]

T½ [1]: ~3.75 h
Substance: CsCsAsCsAsCsCsGoAoCoGsGsCsGsCsCsC [Oligonucleotide 4551]

T½ [1]: approximately 5.5 hours
Substance: CsCsAsCsAsCsCsGoAoCsGsGsCsGsCsCsC [Oligonucleotide 4546]

Substance: O-Pentyl: 17-mer CCACACCGACGGCGCCC with 2′-O-pentyl nucleotides flanking a 7-base deoxy gap (sugars from the 5' end [OPent]5 d7 [OPent]5, backbone and methylation of C not given here)
IC50 (H-ras): 150 nM
Tm (° C.) [2]: 6 °C

Substance: O-Propyl: 17-mer CCACACCGACGGCGCCC with 2′-O-propyl nucleotides flanking a 7-base deoxy gap (sugars from the 5' end [OPr]5 d7 [OPr]5, backbone and methylation of C not given here)
IC50 (H-ras): 70 nM
Tm (° C.) [2]: 7 °C
inhibition of ras expression in T24 cells (ras mRNA): inhibited

Substance: Oligonucleotide 4689: SEQ ID NO: 1, 2′-fluoro-modified nucleotides flanking a 5-deoxy gap (CCACACCGACGGCGCCC; sugars from the 5' end f6 d5 f6, backbone and methylation of C not given here)
antisense activity against H-ras (inhibition of ras expression) (H-ras): also active
